We go through eight compounds from patent publication EP0648766A1, “AGENT ACTING ON THE CENTRAL NERVOUS SYSTEM, METHOD FOR ITS PREPARATION AND PHARMACEUTICAL COMPOSITIONS CONTAINING SUCH AGENT” (VITA-INVEST, S.A., priority 1993, dated 1994).

Data set [1] has as its system rats. Put plainly: Anxiolytic activity, social interaction test (method of File). Type of data set: in vivo.
Excerpt: 2) Anxiolytic activity. Social interaction test.
This consists in placing a pair of rats in an unknown and strongly lit environment.
Data set [2] is described as follows: Anxiolytic activity, two-compartment box (method of Crawley). In kind it is in vivo. An excerpt: 1) Anxiolytic activity. Two-compartment box.
The method used is that of Crawley, J.N.; Pharmacol. Biochem. Behav., 15, 695-699 (1981). This consists of a two-compartment box with different lighting, counting the time of stay and number of entries into the light and dark compartments, the number of lifting movements and the number of lines crossed in each of the two compartments, before and after treatment with the products under study.

A short description of another data set: Acute toxicity. Also noted: species or system mice. The note with it: mouse, in vivo. Here is the method: The acute toxicity is determined by different vias in mice.
Another data set has as its system mouse. Kind of data set: Antidepressive activity, desperate behaviour induced by enforced swimming, Porsolt test. The note with it: mice. In kind it is in vivo. Here is the method:
3) Antidepressive activity. Desperate behaviour induced in mouse by enforced swimming. Porsolt test.
This consists in subjecting the mice to a swimming test by placing them inside transparent cylinders of set dimensions, with water at a temperature of 20-22°C. After a prior detection test, the time the animal takes to adopt an immobile posture is determined, recording the duration of immobility. The average immobility time of the treated groups is compared with that of the control group.

The test system of data set [3] is rats. Kind of data set: Effect on learning and memory, passive avoidance test. Type of data set: in vivo. An excerpt: 4) Effect on learning and memory. Passive avoidance test on rats.
Use is made of the method of Chugh and colls., Eur. J. Pharmacol., 203, 121-123 (1991). This consists in placing the rats in a two-compartment (light and dark) box separated by a door which opens and closes as the experimenter wishes; the floor of both cages is constructed using a metal grid electrifiable as desired in terms of current and duration. The animal is conditioned to avoid the dark zone, and the time of latency in the exposures following the one in which the animals receive the electric shock of 0.2 mA and duration of 3 seconds is determined.

[4] abbreviates: ip, mice, i.p., read-out: APPROXIMATE DL₅₀.
The mark [5] stands for this setting: 0,01 mg/kg i.p., Excipient 158 ± 15.

Read-outs that look alike come from different tables or passages of the source. Some results are limits rather than exact numbers.

Turning to `O=C1CC2(CCCC2)CC(=O)N1CCCCN1CCN(c2ncccn2)CC1` [BUSPIRONA], the “SOCIAL INTERACTION TIME (sec ± E.S.)” value in the data set with rats [1] (0,25 mg/kg i.p., Excipient 158 ± 15) stood at 287 ± 19 s; in the data set with rats [1] (1 mg/kg i.p., Excipient 158 ± 15) it was 275 ± 14 s.
Regarding `O=Cc1c(N2CCN(Cc3ccc4c(c3)OCO4)CC2)[nH]c2ccccc12` [COMPOUND I, 3-[2-(1-(4'-piperonylpiperazinyl))indolyl]-carboxaldehyde], the “SOCIAL INTERACTION TIME (sec ± E.S.)” value in the data set on rats [1] (0,5 mg/kg i.p., Excipient 158 ± 15) was found to be 235 ± 12 s; with rats [1] (2 mg/kg v.o., Excipient i.p 158 ± 15) it was 262 ± 17 s. The “% TIME IN LIGHT COMPARTMENT (X ± E.S.)” value in data set [2] (2 µg/kg i.p., N 11, same group PRE-EXPOSURE 10,8 ± 3,6) is listed as 14,6 ± 7,2%; in data set [2] (4 µg/kg v.o., N 10, same group PRE-EXPOSURE 14,5 ± 4,0), 20,0 ± 5,5%; in data set [2] (8 µg/kg v.o., N 11, same group PRE-EXPOSURE 24,9 ± 6,8) it was 28,6 ± 8,0%; in data set [2] (20 µg/kg i.p., N 11, same group PRE-EXPOSURE 10,7 ± 3,5) it was 12,7 ± 6,5%; in data set [2] (50 µg/kg i.p., N 20, same group PRE-EXPOSURE 22,9 ± 3,1) it was 15,4 ± 4,4%; in data set [2] (100 µg/kg i.p., N 20, same group PRE-EXPOSURE 15,0 ± 2,0), 8,6 ± 3,2%. The LD50 was more than 500 mg/kg in the data set “Acute toxicity” (setting [4]) and more than 500 mg/kg in “Acute toxicity” (po, mice, v.o., read-out: APPROXIMATE DL₅₀). Besides, the “IMMOBILITY TIME (sec ± E.S.)” value with mouse (0,1 mg/kg i.p., Excipient 89,70 ± 21,7) is on record as 49,4 ± 17,8 sec; in the data set on mouse (0,5 mg/kg i.p., Excipient 89,70 ± 21,7), 31,60 ± 10,2 sec; in the data set on mouse (1 mg/kg i.p., Excipient 132,53 ± 8,70), 59,80 ± 11,00 sec; with mouse (10 mg/kg i.p., Excipient 132,53 ± 8,70), 136,60 ± 11,26 sec. In addition, the “2nd LATENCY (10'), average ± E.S.” value with rats [3] (1 mg/kg i.p., N 7, Excipient 5,7 ± 1,5) is given as 3,3 ± 1,4. Further, the “2nd LATENCY (10'), median” value with rats [3] (1 mg/kg i.p., N 7, Excipient 6) is on record as 4. Besides, the “1st LATENCY, average ± E.S.” value with rats [3] (1 mg/kg i.p., N 7, Excipient 7,1 ± 1,6) is on record as 2,7 ± 0,7. Also, the “1st LATENCY, median” value in the data set with rats [3] (1 mg/kg i.p., N 7, Excipient 9) amounted to 3. Further, in the data set with rats [3] (1 mg/kg i.p., N 7, Excipient 10,7 ± 4,8), the “3rd LATENCY -(24 h), average ± E.S.” value is listed as 23,6 ± 9,0. Further, in the data set on rats [3] (1 mg/kg i.p., N 7, Excipient 21), the “3rd LATENCY -(24 h), median” value was 42.
For `CN1C(=O)CN=C(c2ccccc2)c2cc(Cl)ccc21` [DIAZEPAM], the “SOCIAL I[…] (sec ± E.S.)” value in the data set with rats [1] (2 mg/kg i.p., Excipient 158 ± 15) came out at 257 ± 22 s.
In the case of `CN1C2CCCC1CC(NC(=O)c1nn(C)c3ccccc13)C2` (stereo not shown) [GRANISETRON], the LD50 in “Acute toxicity” (setting [4]) was 89 mg/kg. Also, in the data set on rats [3] (0,1 mg/kg i.p., N 6, Excipient 5,7 ± 1,5), the “2nd LATENCY (10'), average ± E.S.” value is 8,5 ± 1,8. The “2nd LATENCY (10'), median” value in the data set with rats [3] (0,1 mg/kg i.p., N 6, Excipient 6) turned out to be 11. Besides, the “1st LATENCY, average ± E.S.” value in the data set on rats [3] (0,1 mg/kg i.p., N 6, Excipient 7,1 ± 1,6) is 6,3 ± 1,1. Further, the “1st LATENCY, median” value with rats [3] (0,1 mg/kg i.p., N 6, Excipient 9) came to 8. Besides, the “3rd LATENCY -(24 h), average ± E.S.” value with rats [3] (0,1 mg/kg i.p., N 6, Excipient 10,7 ± 4,8) is 19,0 ± 6,5. The “3rd LATENCY -(24 h), median” value with rats [3] (0,1 mg/kg i.p., N 6, Excipient 21) came out at 21.
For `Cc1nccn1CC1CCc2c(c3ccccc3n2C)C1=O` (stereo not shown) [ONDANSETRON], the “SOCIAL INTERACTION TIME (sec ± E.S.)” value in the data set on rats [1] (setting [5]) came to 247 ± 22 s; in the data set on rats [1] (0,05 mg/kg i.p., Excipient 158 ± 15) it was 219 ± 18 s. The “% TIME IN LIGHT COMPARTMENT (X ± E.S.)” value is 12,3 ± 2,7% in data set [2] (2µg/kg i.p., N 10, same group PRE-EXPOSURE 16,6 ± 3,3) and 18,7 ± 5,1% in data set [2] (4 µg/kg v.o., N 10, same group PRE-EXPOSURE 21,1 ± 8,0). In the data set “Acute toxicity” (ip), this compound came in with an LD50 of 7.5 mg/kg.
In the case of `CN1[C@@H]2CC[C@H]1C[C@@H](OC(=O)c1c[nH]c3ccccc13)C2` [TROPISETRON], the “SOCIAL INTERACTION TIME (sec ± E.S.)” value worked out at 253 ± 10 s in the data set on rats [1] (setting [5]) and 231 ± 26 s in the data set with rats [1] (0,1 mg/kg i.p., Excipient 158 ± 15). Further, the “% TIME IN LIGHT COMPARTMENT (X ± E.S.)” value in data set [2] (10 µg/kg i.p., N 20, same group PRE-EXPOSURE 12,4 ± 3,0) was 12,3 ± 3,0%.
On to `COc1cc(N)c(Cl)cc1C(=O)NC1CN2CCC1CC2` (stereo not shown) [ZACOPRIDE], for which the LD50 in the data set “Acute toxicity” (setting [4]) was determined as 135 mg/kg.
For `CN(C)CCCN1c2ccccc2CCc2ccccc21` [[…]], the “[…] (sec ± E.S.)” value in the data set with mouse (30 mg/kg i.p., Excipient 132,53 ± 8,70) is recorded as 71,72 ± 9,82 sec.
